For assay [1], the target named is Jak2 (human Jak2 kinase domain, amino acids 808-1132) (Homo sapiens (Human), UniProt O60674). Description: Jak2 inhibition assay (Omnia kinase assay). The format is biochemical. The following applies: for IC50: Table 1, 500 μM ATP, >1000 nM when >50% inhibition not observed at 1000 nM, read-out: Jak2 Enzyme IC50; for inhibition at 1 µM: read-out: Jak2 Enzyme (% inhibition at 1000 nM), Table 1, 1000 nM test compound.

In assay [2] the target is TrkA (histidine-tagged recombinant human TrkA, cytoplasmic domain) (Homo sapiens (Human), UniProt P04629). Description: TrkA ELISA assay. The format is biochemical. The following applies: Table 1, 500 μM ATP, read-out: TrkA Enzyme IC50. As for the experimental part: An enzyme-linked immunosorbant assay (ELISA) was used to assess TrkA kinase activity in the presence of inhibitors. Immulon 4HBX 384-well microtiter plates (Thermo part #8755) were coated with a 0.025 mg/mL solution of poly (Glu, Ala, Tyr; 6:3:1; Sigma P3899). […] The assay buffer consisted of 25 mM MOPS pH 7.5, 0.005% (v/v) Triton X-100 and 5 mM MgCl2. The reaction mixture was removed from the plate by washing with PBS containing 0.1% (v/v) Tween 20. The phosphorylated reaction product was detected using 0.2 μg/mL of a phosphotyrosine specific monoclonal antibody (clone PY20) conjugated to horseradish peroxidase in conjunction with the TMB Peroxidase Substrate System (KPL). After the addition of 1M phosphoric acid, the chromogenic substrate color intensity was quantitated via absorbance at 450 nm.
On the technique in general: An ELISA detects its analyte on a solid surface through an enzyme-linked reagent.

TrkA (histidine-tagged recombinant human TrkA, cytoplasmic domain), sequence (P04629 440-796): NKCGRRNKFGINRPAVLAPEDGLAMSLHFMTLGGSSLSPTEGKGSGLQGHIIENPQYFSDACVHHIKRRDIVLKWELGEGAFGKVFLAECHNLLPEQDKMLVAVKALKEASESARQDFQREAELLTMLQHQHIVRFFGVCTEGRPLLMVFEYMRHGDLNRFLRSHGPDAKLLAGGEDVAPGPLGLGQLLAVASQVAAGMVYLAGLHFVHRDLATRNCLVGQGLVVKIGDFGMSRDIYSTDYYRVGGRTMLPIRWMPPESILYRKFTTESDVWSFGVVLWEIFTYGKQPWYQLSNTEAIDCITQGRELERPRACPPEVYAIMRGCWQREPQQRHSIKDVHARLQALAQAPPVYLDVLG
Jak2 (human Jak2 kinase domain, amino acids 808-1132), sequence (O60674 808-1132): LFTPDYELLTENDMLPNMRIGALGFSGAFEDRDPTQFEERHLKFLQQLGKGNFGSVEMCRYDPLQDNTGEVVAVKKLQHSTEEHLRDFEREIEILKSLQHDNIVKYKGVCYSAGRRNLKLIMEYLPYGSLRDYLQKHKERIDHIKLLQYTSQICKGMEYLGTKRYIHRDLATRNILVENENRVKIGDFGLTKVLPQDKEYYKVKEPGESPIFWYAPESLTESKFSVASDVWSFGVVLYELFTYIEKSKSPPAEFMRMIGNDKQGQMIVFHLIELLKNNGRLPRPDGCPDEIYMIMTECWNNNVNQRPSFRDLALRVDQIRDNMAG

`C[C@@H](NC(=O)c1cnn2ccc(N3CCC[C@@H]3c3cncc(F)c3)nc12)C(F)(F)F` [Example 129, 5-((R)-2-(5-fluoropyridin-3-yl)pyrrolidin-1-yl)-N-((R)-1,1,1-trifluoropropan-2-yl)pyrazolo[1,5-a]pyrimidine-3-carboxamide]: the values for the concentration for half-maximal inhibition (IC50) in assay [1] and in assay [2] were greater than 1000 nM and 8 nM, respectively. Also, the inhibition at 1 µM in assay [1] was 25.2%.

For `O=C(N[C@@H]1CCC[C@H]1O)c1cnn2ccc(N3CCC[C@@H]3c3cncc(F)c3)nc12` [Example 133, 5-((R)-2-(5-fluoropyridin-3-yl)pyrrolidin-1-yl)-N-((1R,2R)-2-hydroxycyclopentyl)pyrazolo[1,5-a]pyrimidine-3-carboxamide], the inhibition at 1 µM in assay [1] worked out at 14.4%. In addition, the 50% inhibitory concentration (IC50) in assay [2] worked out at 16 nM.

Take `CCc1ncc(F)cc1[C@H]1CCCN1c1ccn2ncc(C(=O)N[C@H]3CC[C@H](O)C3)c2n1` [Example 200, 5-((R)-2-(2-ethyl-5-fluoropyridin-3-yl)pyrrolidin-1-yl)-N-((1S,3S)-3-hydroxycyclopentyl)pyrazolo[1,5-a]pyrimidine-3-carboxamide]: in assay [1], the IC50 is greater than 1000 nM and the inhibition at 1 µM was 12.5%. Further, the IC50 in assay [2] is 12.7 nM.

One may read the IC50 as the concentration that gives 50% inhibition. The inhibition is the change of the read-out against control, counted positive when it falls.

(Values after patent US10251889B2, “Substituted pyrazolo[1,5-a]pyrimidine compounds as Trk kinase inhibitors” (Array BioPharma, Inc., priority 2009, dated 2019).)
